Like-named read-outs stand apart in the source and are kept apart here. Where no end group is shown, it is not given here.
Legend:
[1] = tested on: Harlan Sprague Dawley rats; test: Diuretic effects of GLP-1 or exendin in anesthetized rats (urine flow, sodium excretion, urinary potassium); type: in vivo, rat; details: intravenous bolus
Method: In Vivo Studies in Anesthetized rats: Male, Harlan Sprague Dawley rats were housed at 23±1° C. in a 12:12 hour light:dark cycle (experiments being performed during the light cycle) and were fed and watered ad libitum (Diet LM-485, Teklad, Madison, Wis.). Animals weighing 325-375 gms were fasted for ˜20 hours prior to experimentation.
Surgical preparation: The preparation used here was as described in Young et al., (Drug Dev Res. 37:231-248, 1996), but modified by the addition of unilateral ureteral cannulation. Anesthesia was induced with 5% halothane, maintained with 2% halothane during surgery and with 0.7 to 1% thereafter. […] Colonic temperature was measured and controlled using a thermistor probe/controller (Model 73A, YSI, Yellow Springs, Ohio) and a heated operating table. Signals for mean arterial pressure were periodically sampled at 1 Hz with 12 bit precision (DataTranslation DT2801A) and recorded (Labtech Notebook).
Observations are expressed as the percent of baseline, defined as the mean of measurements made in the 30 min prior to starting peptide or vehicle infusion. Data are expressed as mean±SEM. n=5-6.
Measurements: Samples of arterial blood (160 μl) were collected periodically and samples of urine were collected every 15 min. […] Unilateral urine flow was measured by weighing the 15-minute output of the cannulated ureter. […]

[2] = tested on: Harlan Sprague Dawley rats; test: Arterial blood pressure and dP/dt in conscious rats by telemetry; type: in vivo, rat; details: single intraperitoneal injection
Description: Insertion of Transducers: Male, Harlan Sprague Dawley rats were anesthetized with halothane and the abdominal aorta exposed after laparotomy. According to procedures detailed in the “Pressure Telemetry” manual from Data Sciences Inc., pressure transducer/transmitters were secured in place on the abdominal wall with the catheter tip in the abdominal aorta ˜2 mm above bifurcation. Following closure, the animals then recovered to allow at least 7 days of stable recordings. Baseline data were collected during the 7+days after surgery.
Measurement of blood pressure and dP/dt: After obtaining a stable baseline, rats received an intraperitoneal (ip) injection of GLP-1, exendin or vehicle alone (NaCl). The transmitted signals were recorded via telemetry and stored on a personal computer. Rate of pressure change, dP/dt, was calculated by software provided by Data Sciences.
GLP-1: Animals received a single intraperitoneal (ip) injection of saline or GLP-1 (100 μl), n=7-8.

[3] = cited from earlier work
[4] = administered through the jugular vein; cited from earlier work

His Ala Glu Gly Thr Phe Thr Ser Asp Val Ser Ser Tyr Leu Glu Gly Gln Ala Ala Lys Glu Phe Ile Ala Trp Leu Val Lys Gly Arg-NH2 (HAEGTFTSDVSSYLEGQAAKEFIAWLVKGR-NH2; listed as Homo sapiens) [GLP-1]
sodium excretion [1]: increased | cardiac contractility (dP/dt) [2]: increase | mean arterial pressure [2]: increase | diuretic effect ([3]; intracerebroventricular administration): diuretic, antidypsogenic effect | diuretic effect ([3]; peripheral, intraperitoneal injection): did not have this effect | systolic and diastolic blood pressure and heart rate [4]: increase
